According to paper PMC9916441, “Resveratrol Derivative Exhibits Marked Antiproliferative Actions, Affecting Stemness in Pancreatic Cancer Cells” (International Journal of Molecular Sciences, 2023):
Like-named read-outs stand apart in the source and are kept apart here.

What was measured:
AsPC-1 [1] = assay: MTT cell viability assay; type: cell-based, human
Method: (§1) The cell viability was assessed using MTT assay, as previously described. Briefly, the cells were seeded in 96-well plates (4 × 10^3 cells/well) and were treated for 72 h with different concentrations of RSV, DF5, and DF12. The IC50 values were extrapolated from dose–response curves and calculated using the CompuSyn software (https://www.combosyn.com/). The selectivity index (SI) values were calculated as ratios between the IC50 values of compounds in normal HFF-1 fibroblast cells and the IC50 values of the same compounds in the PC cell lines.

BxPC-3 [2] = assay: MTT cell viability assay; type: cell-based, human
Method: as §1

Capan-2 [3] = assay: MTT cell viability assay; type: cell-based, human
Method: as §1

[4] = test system: normal HFF-1 fibroblast cells; assay: MTT cell viability assay on normal fibroblasts; type: cell-based, human; conditions: 72 h
Method: as §1

AsPC-1 [5] = assay: Flow cytometry immunophenotyping of CD133+EpCAM+ cancer stem-like subpopulation; type: cell-based, human; conditions: AsPC-1, 20 μM, 72 h
Method: (§2) The expression of CD133 and EpCAM surface antigens was evaluated using flow cytometry. Briefly, the PC cells were seeded in 6-well plates and treated for 72 h with 20 μM DF5, RSV, or with vehicle (DMSO). After treatment, the cells were collected in PBS and stained at room temperature in the dark for 30 min with PE-CD133, FITC-EpCAM antibodies, and Reactive Dye. After labeling, the samples were washed in PBS by centrifugation at 1500 rpm for 10 min, to remove excess antibodies. Flow cytometer performance, stability, and data reproducibility were daily checked by using the CS&T quality control Module (BD Biosciences). The gating strategy and the evaluation of non-specific fluorescence was determined using fluorescence minus one (FMO) controls. The data were acquired with FACSVerse analyzer equipped with a volumetric count module (BD Biosciences, San Jose, CA, USA) and are expressed as the percentage of positive cells.

BxPC-3 [6] = assay: as above; type: cell-based, human; conditions: BxPC-3, 20 μM, 72 h
Method: as §2

Capan-2 [7] = assay: as above; type: cell-based, human; conditions: Capan-2, 20 μM, 72 h
Method: as §2

Cyclin D3 = assay: Western blot of cyclin D3 in PC cell lines; type: cell-based, human; conditions: 50 μM
Method: The PC cell lines treated with 50 μM DF5, RSV, or with vehicle (DMSO) were lysed in a cell lysis buffer containing PMSF, protease inhibitors cocktails, and phosphatase inhibitors. The protein lysate quantification and immunoblot analyses were performed as previously described.

Water solubility = type: physicochemical
Method: The solubility was determined as previously described. The calculated LogP (cLogP) value was determined using ACD LogP software package, version 4.55 (Advanced Chemistry Development Inc., Toronto, ON, Canada).

IC50 (AsPC-1 [1]; Homo sapiens, ASPC1, AsPC-1, MTT, 72 h): 14.7 µM | IC50 (BxPC-3 [2]; Homo sapiens, BxPC-3, MTT, 72 h): 22.7 µM | solubility (Water solubility; read-out: Classification (water solubility)): < 0.1 mg/mL | solubility (Water solubility; read-out: Water Solubility): < 0.01 mg/mL
SMILES: Cc1ccc(/C=C/c2ccc(O)cc2)cc1 [DF5]
Selectivity Index (SI) AsPC-1 (AsPC-1 [1]; SI = IC50 on normal HFF-1 fibroblast cells/IC50 on AsPC-1): > 6.79 | Selectivity Index (SI) BxPC-3 (BxPC-3 [2]; SI = IC50 on normal HFF-1 fibroblast cells/IC50 on BxPC-3): > 4.41 | effect on cell viability at maximum tested concentration (Capan-2 [3]; Capan-2, MTT, 100 µM): almost complete loss of cell viability | IC50 (Capan-2 [3]; Homo sapiens, Capan-2, MTT, 72 h): 27.8 µM | Selectivity Index (SI) Capan-2 (Capan-2 [3]; SI = IC50 on normal HFF-1 fibroblast cells/IC50 on Capan-2): > 3.60 | toxicity against normal HFF-1 fibroblast cells ([4]; up to 100 μM): negligible toxicity | IC50 ([4]; Homo sapiens, normal HFF-1 fibroblasts, 100 μM highest concentration used): > 100 µM | effect on percentage of CD133+EpCAM+ cancer stem-like subpopulation (AsPC-1 [5]): sharp and statistically significant reduction | effect on percentage of CD133+EpCAM+ cancer stem-like subpopulation (BxPC-3 [6]): statistically significant impact | effect on percentage of CD133+EpCAM+ cancer stem-like subpopulation (Capan-2 [7]): sharp and statistically significant reduction | effect on cyclin D3 expression (Cyclin D3): clear-cut reduction or even an abolishment in the expression of cyclin D3
